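Values below derive from 48-hour exposures of cells grown in 96-well plates, with endpoints linearly interpolated between the two concentrations bracketing the appropriate inhibition level. TGI is the concentration that stops growth completely.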
Tests used:
Assay in all cases: growth of human tumour cells (NCI), 48 h
PC-3 prostate = test system: PC-3 prostate
SF-539 CNS = test system: SF-539 CNS
NCI-H226 lung = test system: NCI-H226 lung
K-562 leukemia = test system: K-562 leukemia
OVCAR-5 ovarian = test system: OVCAR-5 ovarian
A498 renal = test system: A498 renal
HCC-2998 colon = test system: HCC-2998 colon
KM12 colon = test system: KM12 colon
SK-MEL-2 melanoma = test system: SK-MEL-2 melanoma
OVCAR-3 ovarian = test system: OVCAR-3 ovarian
SK-MEL-5 melanoma = test system: SK-MEL-5 melanoma
OVCAR-4 ovarian = test system: OVCAR-4 ovarian
OVCAR-8 ovarian = test system: OVCAR-8 ovarian
M14 melanoma = test system: M14 melanoma
HS 578T breast = test system: HS 578T breast
MALME-3M melanoma = test system: MALME-3M melanoma
SF-268 CNS = test system: SF-268 CNS
NCI-H522 lung = test system: NCI-H522 lung
TK-10 renal = test system: TK-10 renal

Row | Structure (SMILES) | TGI (PC-3 prostate) | TGI (SF-539 CNS) | TGI (NCI-H226 lung) | TGI (K-562 leukemia) | TGI (OVCAR-5 ovarian) | TGI (A498 renal) | TGI (HCC-2998 colon) | TGI (KM12 colon) | TGI (SK-MEL-2 melanoma) | TGI (OVCAR-3 ovarian) | TGI (SK-MEL-5 melanoma) | TGI (OVCAR-4 ovarian) | TGI (OVCAR-8 ovarian) | TGI (M14 melanoma) | TGI (HS 578T breast) | TGI (MALME-3M melanoma) | TGI (SF-268 CNS) | TGI (NCI-H522 lung) | TGI (TK-10 renal)
1 | C=CCC1(O)CC(n2cc(C)c(=O)[nH]c2=O)OC1CO[Si](C)(C)C(C)(C)C (centres undefined) | > 100 µM | > 100 µM | > 100 µM | > 100 µM | > 100 µM | > 100 µM | > 100 µM | > 100 µM | > 100 µM | > 100 µM | > 100 µM | > 100 µM | > 100 µM | > 100 µM | – | – | – | – | –
2 | CN(C)CCNc1ccc([N+](=O)[O-])c2sc3ccccc3c(=O)c12 | 21.6 µM | 13.7 µM | 51.2 µM | > 100 µM | 14.6 µM | – | 13.1 µM | > 100 µM | 27.9 µM | 32.6 µM | 20.6 µM | 9.27 µM | 19.9 µM | 46.8 µM | 38.8 µM | 17.9 µM | 48.8 µM | 5.15 µM | > 100 µM
3 | CN1Cc2ccccc2S(=O)(=O)n2cccc2C1=O | > 100 µM | > 100 µM | – | > 100 µM | > 100 µM | > 100 µM | – | > 100 µM | > 100 µM | > 100 µM | > 100 µM | > 100 µM | – | – | > 100 µM | – | – | > 100 µM | > 100 µM
4 | CCCN(CCC)CCc1ccc(OC2=CCN(C)CC2)cc1 | > 100 µM | – | > 100 µM | > 100 µM | > 100 µM | – | > 100 µM | > 100 µM | > 100 µM | > 100 µM | > 100 µM | > 100 µM | > 100 µM | 29.1 µM | > 100 µM | 32.4 µM | > 100 µM | 67 µM | > 100 µM
5 | Cn1c(=O)c2c3ccccc3n(C)c2n(C)c1=O | – | > 100 µM | > 100 µM | > 100 µM | > 100 µM | > 100 µM | > 100 µM | > 100 µM | > 100 µM | > 100 µM | > 100 µM | > 100 µM | > 100 µM | > 100 µM | > 100 µM | > 100 µM | > 100 µM | > 100 µM | > 100 µM
6 | Cc1ccc(Nc2nc(=O)c3c4ccccc4n(C(=O)OC(C)(C)C)c3s2)cc1 | > 100 µM | 79.8 µM | – | > 100 µM | 48.3 µM | > 100 µM | – | 54.5 µM | 59.2 µM | 55.7 µM | 27 µM | > 100 µM | > 100 µM | 44.1 µM | > 100 µM | 66.3 µM | 59.3 µM | 59.3 µM | 99.9 µM
7 | O=C1C=Cc2c(Br)sc(Br)c21 | 49.7 µM | > 100 µM | – | 54.5 µM | > 100 µM | > 100 µM | 29.2 µM | > 100 µM | 70.3 µM | 32.3 µM | > 100 µM | – | > 100 µM | 84.4 µM | > 100 µM | 64.6 µM | > 100 µM | 68.2 µM | 31.7 µM
8 | C=C(C)[C@@H]1CCC2=C[C@@H](OC2=O)[C@@H](C(=C)C)C2=CC(C(=O)O)=C(C1)O2 | – | > 100 µM | > 100 µM | > 100 µM | > 100 µM | > 100 µM | > 100 µM | > 100 µM | > 100 µM | > 100 µM | > 100 µM | > 100 µM | > 100 µM | > 100 µM | > 100 µM | > 100 µM | > 100 µM | > 100 µM | > 100 µM
9 | O=C1OCN(c2ccccc2)C12CCN(Cc1ccccc1)CC2 | > 100 µM | 39.7 µM | > 100 µM | 24.1 µM | > 100 µM | – | 32.6 µM | 47.2 µM | 48.4 µM | – | 33.6 µM | > 100 µM | > 100 µM | 33.1 µM | 55.4 µM | 43.8 µM | > 100 µM | – | > 100 µM
10 | CC(=O)c1cccc(Nc2nc3ccccc3c3occc23)c1 | > 100 µM | 35.6 µM | 8.25 µM | > 100 µM | > 100 µM | 30.5 µM | > 100 µM | > 100 µM | – | > 100 µM | 48.6 µM | 61.5 µM | 74.5 µM | > 100 µM | – | 53 µM | 86.7 µM | – | 38.5 µM
11 | Cc1ccc(S(=O)(=O)NC(=O)NC(CC(N)=O)C(=O)O)cc1 (centres undefined) | > 100 µM | > 100 µM | – | > 100 µM | > 100 µM | – | – | > 100 µM | > 100 µM | – | > 100 µM | > 100 µM | > 100 µM | > 100 µM | > 100 µM | > 100 µM | > 100 µM | > 100 µM | > 100 µM
12 | COc1ccc2c(c1)CC[C@@H]1[C@@H]2CC[C@]2(C)C(=O)/C(=C/c3ccc(N(C)C)cc3)C[C@@H]12 | > 100 µM | > 100 µM | – | – | > 100 µM | > 100 µM | > 100 µM | > 100 µM | 84.6 µM | 54.6 µM | > 100 µM | > 100 µM | – | > 100 µM | – | > 100 µM | 89.9 µM | – | 96.9 µM
13 | Cc1ccc2c(c1)[nH]c(=S)n2C=C(C(N)=O)C(N)=O | – | > 100 µM | > 100 µM | – | > 100 µM | > 100 µM | > 100 µM | > 100 µM | > 100 µM | > 100 µM | > 100 µM | > 100 µM | > 100 µM | > 100 µM | – | – | > 100 µM | – | > 100 µM
14 | c1ccc(C(C2=Nc3cccc4cccc(c34)N2)c2ccccc2)cc1 | 87.3 µM | 34.2 µM | 84.7 µM | 81.7 µM | – | – | 37.8 µM | 49.6 µM | 50 µM | 41.5 µM | 38.2 µM | > 100 µM | > 100 µM | 65 µM | 81.8 µM | 73.3 µM | 66.1 µM | 36.3 µM | > 100 µM
